# System: not listed separately
# Test: Solubility Determination Assay (PBS pH 1.6 and pH 7.4)
# Assay type: physicochemical
# Settings: PBS buffer, aqueous buffer, kinetic from dmso stock; PBS pH 1.6, 25° C., 2 hours shaking; read-out: Aq. Solubility at pH = 1.6
# Experimental: Example 31: Solubility Determination Assay
# The stock solutions of test compounds and control compound progesterone were prepared in DMSO at the concentrations of 10 mM. 15 μL of stock solution (10 mM) of each sample was placed in order into their proper 96-well rack. 485 μL of PBS pH 1.6 and pH 7.4 were added into each vial of the cap-less Solubility Sample plate. The assay was performed in singlet. One stir stick was added to each vial and then the vial was sealed using a molded PTFE/Silicone plug. The solubility sample plates were then transferred to the Eppendorf Thermomixer Comfort plate shaker and shaken at 25° C. at 1100 rpm for 2 hours. After completion of the 2 hours, plugs were removed and the stir sticks were removed using a big magnet. The samples from the Solubility Sample plate were transferred into the filter plate. Using the Vacuum Manifold, all the samples were filtered. An aliquot of 5 μL was taken from the filtrate followed by addition of 495 μL of a mixture of H2O and acetonitrile containing internal standard (1:1). A certain proportion of ultrapure water was used to dilute the diluent according to the peak shape. The dilution factor was changed according to the solubility values and the LC-MS signal response.
# From the 10 mM DMSO STD plate, 6 μL was transferred into the remaining empty plate, and then 194 μL of DMSO were added to that plate to have a STD concentration of 300 μM. From the 300 μM DMSO STD plate, 5 μL were transferred into the remaining empty plate, and then 495 μL of a mixture of H2O and acetonitrile containing internal standard (1:1) were added to that plate to have a final STD concentration of 3 μM. A certain proportion of ultrapure water was used to dilute the diluent according to the peak shape. The concentrations of the standard samples were changed according to the LC-MS signal response.
# The plate was placed into the well plate autosampler. The samples were evaluated by LC-MS/MS analysis.
# All calculations were carried out using Microsoft Excel.
# The filtrate was analyzed and quantified against a standard of known concentration using LC coupled with mass spectral peak identification and quantitation. Solubility values of the test compound and control compound were calculated as follows: […]
# Any value of the compounds that was not within the specified limits was rejected and the experiment was repeated.
# “+++” indicates a solubility value equal to or greater than […] “++” indicates a solubility value between 0.1 and 1 μM and “+” indicates a solubility value less than 0.1 μM.
row,solubility at 2 h [µM],SMILES
1,≥ 1,"Cc1ccccc1-c1cc2ncc(NC(=O)c3ccnn3C)cc2[nH]1 [Product 49, 1-methyl-N-(2-(o-tolyl)-1H-pyrrolo[3,2-b]pyridin-6-yl)-1H-pyrazole-5-carboxamide]"

# Same assay, conditions: PBS buffer, aqueous buffer, kinetic from dmso stock; PBS pH 7.4, 25° C., 2 hours shaking; read-out: Aq. Solubility at pH = 7.4
row,solubility at 2 h [µM],SMILES
1,≥ 1,"Cc1ccccc1-c1cc2ncc(NC(=O)c3ccnn3C)cc2[nH]1 [Product 49, 1-methyl-N-(2-(o-tolyl)-1H-pyrrolo[3,2-b]pyridin-6-yl)-1H-pyrazole-5-carboxamide]"

# Biological target: T1, AHR (Homo sapiens, UniProt P35869)
# T1 construct: other cell line with a DRE-luciferase reporter stably transfected; endogenous in cells; host or cells: Human HepG2 liver carcinoma AhR-Lucia reporter cells
# T1 sequence (P35869 11-848): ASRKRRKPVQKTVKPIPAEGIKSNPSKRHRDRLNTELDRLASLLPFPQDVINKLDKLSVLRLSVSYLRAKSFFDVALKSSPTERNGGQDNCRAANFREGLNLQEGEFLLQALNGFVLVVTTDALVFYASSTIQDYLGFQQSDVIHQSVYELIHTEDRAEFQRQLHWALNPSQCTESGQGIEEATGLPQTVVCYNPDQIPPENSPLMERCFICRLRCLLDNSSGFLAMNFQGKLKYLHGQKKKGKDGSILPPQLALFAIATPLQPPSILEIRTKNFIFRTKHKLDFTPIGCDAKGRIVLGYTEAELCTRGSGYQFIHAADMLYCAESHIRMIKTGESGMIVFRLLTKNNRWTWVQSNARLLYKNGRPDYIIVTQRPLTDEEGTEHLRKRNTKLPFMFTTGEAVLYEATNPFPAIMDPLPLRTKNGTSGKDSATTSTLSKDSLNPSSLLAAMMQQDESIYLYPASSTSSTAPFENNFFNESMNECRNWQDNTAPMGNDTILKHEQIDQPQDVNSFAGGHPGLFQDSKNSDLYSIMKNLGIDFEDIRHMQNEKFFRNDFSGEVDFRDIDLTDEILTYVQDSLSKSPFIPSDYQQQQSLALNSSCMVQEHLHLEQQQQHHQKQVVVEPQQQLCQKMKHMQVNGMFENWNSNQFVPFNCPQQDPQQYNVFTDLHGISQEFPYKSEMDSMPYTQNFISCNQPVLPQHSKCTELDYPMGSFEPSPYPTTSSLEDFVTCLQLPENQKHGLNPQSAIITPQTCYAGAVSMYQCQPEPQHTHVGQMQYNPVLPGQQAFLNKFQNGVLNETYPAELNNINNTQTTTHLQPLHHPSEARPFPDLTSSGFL
# Test: DRE-Luciferase Reporter Assay (HepG2 AhR-Lucia reporter cells)
# Assay type: cell-based
# Settings: AHR activating ligand at its EC50, luciferase read-out, read-out: HEPG2 Luc IC50
# Description: Example 27: DRE-Luciferase Reporter Assay
# AHR binds to Dioxin Responsive Elements (DRE) upstream of genes that it activates. One measure of AHR activity is activation of a reporter gene, such as luciferase, downstream of one or multiple DRE elements. Luciferase activity will reflect activation and inhibition of AHR in the cells expressing his reporter. 20000 Human HepG2 liver carcinoma—AhR-Lucia reporter cells or Human HT29 colon adenocarcinoma—AhR reporter cells or other cell line with a DRE-luciferase reporter stably transfected were plated in Eagle's Minimal Essential Medium, 10% heat-inactivated FBS, 1×non-essential amino acids Pen-Strep (10,000 U/mL) and Normocin (100 ug/mL) in plates (96-well, 384-well or other plates) and incubated overnight at 37° C. in a CO2 incubator and treated with and without AhR antagonists at a log dilution starting at 100 uM.
# After 1 hr that cells were plated an AHR activating ligand, such as TCDD, kynurenine, ITE (2-(1H-indole-3-ylcarbonyl)-4-thiazolecarboxylic methyl ester), VAF347, BNF (beta-naphthoflavone), FICZ (6-formylindolo(3,2-b) carbazole) or other AHR ligands at their specific EC50 concentration, were added to the cells with or without AHR antagonist.
# Cells were incubated for 24 or 48 hours or another time point and then, supernatant was analyzed for determination of luciferase activity as a read-out of the AHR activation or inhibition. Luciferase was measured with the commercial kit QUANTI-Luc™ assay solution kit from Invivogen following the manufacturer's instructions.
# The level of luciferase with only agonist ligand added was the maximum signal while the luciferase with […] was the minimum signal. IC50 values were determined as the concentration which inhibits half of the luciferase activity. “A” indicates an IC50 value less than 100 nM, “B” indicates an IC50 between 100 and 500 nM, “C” indicates an IC50 above 500 nM.
row,IC50 [nM],SMILES
1,100 to 500,"Cc1ccccc1-c1cc2ncc(NC(=O)c3ccnn3C)cc2[nH]1 [Product 49, 1-methyl-N-(2-(o-tolyl)-1H-pyrrolo[3,2-b]pyridin-6-yl)-1H-pyrazole-5-carboxamide]"
2,> 500,"CC(=O)Nc1ccccc1-c1ccc2nc(NC(=O)c3ccnn3C)sc2n1 [Product 35, N-(5-(2-acetamidophenyl)thiazolo[5,4-b]pyridin-2-yl)-1-methyl-1H-pyrazole-5-carboxamide]"
3,100 to 500,"Cn1nccc1C(=O)Nc1nc2ccc(-c3ccccn3)nc2s1 [Product 27, 1-methyl-N-(5-(pyridin-2-yl)thiazolo[5,4-b]pyridin-2-yl)-1H-pyrazole-5-carboxamide]"
4,> 500,"Cc1ccccc1-c1ccc2nc(NC(=O)c3ccnn3C)oc2n1 [Product 43, 1-methyl-N-(5-(o-tolyl)oxazolo[5,4-b]pyridin-2-yl)-1H-pyrazole-5-carboxamide]"

# Further lines, the molecule ahead of its results:
row,SMILES,IC50 [nM]
1,"Cn1ncnc1C(=O)Nc1nc2ccc(-c3ccccc3C(F)F)nc2s1 [Product 7, N-(5-(2-(difluoromethyl)phenyl)thiazolo[5,4-b]pyridin-2-yl)-1-methyl-1H-1,2,4-triazole-5-carboxamide]",> 500
2,"Cn1nccc1C(=O)Nc1nc2ccc(-c3ccccc3O)nc2s1 [Product 24, N-(5-(2-hydroxyphenyl)thiazolo[5,4-b]pyridin-2-yl)-1-methyl-1H-pyrazole-5-carboxamide]",> 500
3,"Cc1ccccc1-c1ccc2nc(NC(=O)c3cccnc3)sc2n1 [Product 9, N-(5-(o-tolyl)thiazolo[5,4-b]pyridin-2-yl)nicotinamide]",> 500
4,"Cc1ccccc1-c1ccc2nc(NC(=O)c3ncnn3C)sc2n1 [Product 2, 1-Methyl-N-(5-(o-tolyl)thiazolo[5,4-b]pyridin-2-yl)-1H-1,2,4-triazole-5-carboxamide]",100 to 500
5,"Cn1nccc1C(=O)Nc1nc2ccc(-c3ccccc3C(F)(F)F)nc2s1 [Product 1, 1-methyl-N-(5-(2-(trifluoromethyl)phenyl)thiazolo[5,4-b]pyridin-2-yl)-1H-pyrazole-5-carboxamide]",> 500
6,"Cc1ccccc1-c1ccc2nc(NC(=O)c3ccncc3)sc2n1 [Product 10, N-(5-(o-tolyl)thiazolo[5,4-b]pyridin-2-yl)isonicotinamide]",> 500

# Reference: patent US20230234967A1, “Fused Azole Heterocycles as AHR Antagonists” (Senda Biosciences, Inc., priority 2021, published 2023)
